Measurements taken from publication PMC6571965, “Importance of the Proximity and Orientation of Ligand-Linkage to the Design of Cinnamate-GW9662 Hybrid Compounds as Covalent PPARγ Agonists” (Molecules, 2019).
Entries after “also recorded” stand apart in the source; their conditions may differ. Read-outs that look alike come from different tables or passages of the source.

What was measured:
human PPARγ LBD [1] = biological target: T1, human PPARγ LBD (Homo sapiens, UniProt P37231); design: expressed in transfected cells; host or cells: HepG2; method as in PMID 26414848; conditions: previously synthesized compound; read-out: EC50 value (partial agonistic activity); cited from earlier work
T1 sequence (P37231 238-503 limits assumed): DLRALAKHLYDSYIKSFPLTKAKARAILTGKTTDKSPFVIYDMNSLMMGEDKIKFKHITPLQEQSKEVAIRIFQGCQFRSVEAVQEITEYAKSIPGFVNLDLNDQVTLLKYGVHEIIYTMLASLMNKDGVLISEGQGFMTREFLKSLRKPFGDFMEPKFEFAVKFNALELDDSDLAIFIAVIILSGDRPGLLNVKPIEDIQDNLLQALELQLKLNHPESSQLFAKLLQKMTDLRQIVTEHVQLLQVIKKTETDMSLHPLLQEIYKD

[2] = biological target: T2, recombinant PPARγ LBD (Cys285) (Homo sapiens, UniProt P37231); experiment: Rhodamine-maleimide assay for covalent modification of Cys285; assay type: binding; conditions: PPARγ LBD 2 µM, 30 min incubation at room temperature
T2 construct: recombinant PPARγ LBD (2 µM) was mixed with various ligands; gift of Dr. Takuji Oyama (Yamanashi University)
T2 sequence (P37231 238-503 limits assumed): T1 sequence (P37231 238-503 limits assumed)
Source text: (§1) To assess the interactions between the receptor and the synthesized compounds, we initially validated the formation of a covalent bond with Cys285 by performing a rhodamine-maleimide assay. This assay can detect the presence of a covalent modification of Cys285 in the PPARγ LBD because it has only one cysteine residue in its sequences. […] To further confirm the covalent bonding of the synthesized compounds, we conducted proteolytic mapping studies via mass spectroscopy using 4a as a representative compound and 4b as a negative control. The complexes between recombinant PPARγ LBD and the test compounds were trypsinized and subjected to MALDI-TOF MS. Covalent binding of 4a (mass of 466.1 Da) to the PPARγ LBD is assumed to result in a mass change of 431.1 Da for the modified tryptic peptide. By comparison of the tryptic digests of PPARγ, with and without 4a, a candidate peptide containing the attachment site for 4a ([…], m/z 499.7492 Da) was detected by its mass shift to m/z 714.8080 Da (detected as double charged; Figure 3B).
Rhodamine-Maleimide assay was performed as previously described. Briefly, recombinant PPARγ LBD (2 µM) was mixed with various ligands at the indicated concentrations in 20 mM Tris-HCl, pH8.0, 150 mM NaCl, and 1 mM tris(2-carboxylethyl)phosphine (TCEP). The mixture was incubated for 30 min at room temperature. SDS was added to the reaction mixture to a final concentration of 0.5%, followed by rhodamine red C2 maleimide (Life Technologies, Carlsbad, CA, USA) at a final concentration of 1 mM. After incubation at room temperature for 30 min, samples were treated with SDS-PAGE sample buffer containing β-mercaptoethanol for 30 min at 55 °C and were separated by SDS-PAGE. Fluorescent signals were visualized using the LAS1000 plus image analyzer (Fujifilm, Tokyo, Japan).
. (B), (C) Detection of covalent binding of 4a to Cys285 in the PPARγ LBD by ESI-MS/MS analysis. Fragmentation pattern of peptide […] was obtained from the trypsin digest. The calculated y- and b-ions of this peptide with observed ions underlined and the native or modified peptides detected in chromatogram are shown.

[3] = biological target: T2, recombinant PPARγ LBD (Cys285); experiment: Proteolytic mapping by MS/MS of ligand modification of PPARγ LBD; assay type: binding; conditions: PPARγ LBD 20 µM, ligand 40 µM, 30 min, trypsin digest
Source text: as §1
LC-MS/MS detection was performed as previously described. Briefly, purified recombinant PPARγ LBD (20 µM) was incubated with ligands (40 µM) in 20 mM Tris-HCl, pH8.0, 150 mM NaCl, and 1 mM TCEP for 30 min. […]
. […] The calculated y- and b-ions of this peptide with observed ions underlined and the native or modified peptides detected in chromatogram are shown.

human PPARγ LBD [4] = biological target: T1, human PPARγ LBD; experiment: PPARγ reporter assay (GAL4 DNA-binding domain/PPARγ LBD chimera, pUAS-tk-Luc luciferase) in HepG2 cells; assay type: cell-based; design: expressed in transfected cells; host or cells: HepG2; conditions: for EC50 / PPARγ agonist activity (in words): HepG2 cells, pGal4-human PPARγLBD, 6 h treatment; for EC50: mean ± SD, read-out: EC50 (PPARγ agonist activity); for fold more potent than previously synthesized compound 3: PPARγ agonist activity, compared with 3
Experimental: PPARγ agonist activity was assessed by expression of a GAL4 DNA-binding domain/PPARγ LBD chimera protein using the plasmid pGAL4- PPARγ LBD and the luciferase reporter plasmid pUAS-tk-Luc containing the target sequence of GAL4 [20]. […] This supports our hypothesis that close proximity between the two fragments contributes to the improvement of binding affinity.
The PPARγ reporter assay was carried out as previously reported with slight modifications. pGal4-human PPARγLBD, pUAS-tk-luc and Renilla luciferase transfection control vector (pGL4.74, Promega, Madison, WI, USA) were transfected into HepG2 cells using Hily-max (Dojindo, Kumamoto, Japan) and PPARγ agonist activity was determined from the luciferase activity using the Dual-Luciferase Reporter Assay System (Promega) according to the manufacturer’s protocol.
Figure 2 Transactivation potentials of PPARγ by 4a, b, c, d, e, and 16. The luciferase reporter assay was performed in HepG2 cells transiently cotransfected with pGal4-humanPPARγLBD plasmid, pUAS-tk-Luc reporter, and pGL4.74[hRluc/TK] (Promega). Firefly luciferase activities were normalized to Renilla luciferase activities. Vehicle control data are denoted as 1. […] All the results are presented as the mean ± SD (n = 3) of three independent experiments. * p < 0.001, compared with vehicle control.

human PPARγ LBD [5] = biological target: T1, human PPARγ LBD; experiment: Luciferase reporter assay after ligand withdrawal in HepG2 cells; conditions: 6 h treatment (troglitazone 10 μM; 4a, 4c 100 nM), washed, 24 h after withdrawal
Source text: (§2) We first examined the relationship between covalent binding to the Cys285 residue and the agonist activity by a luciferase reporter gene assay using PPARγ mutants where the cysteine was substituted to an alanine (C285A). […] To examine this idea, we monitored the levels of luciferase activity upon withdrawal of the synthesized agonists.

[6] = biological target: T3, human PPARγ LBD C285A mutant (Homo sapiens, UniProt P37231, C313A); experiment: Luciferase reporter gene assay with C285A mutant of pGal4-humanPPARγLBD in HepG2 cells; conditions: 6 h, troglitazone 10 μM
T3 sequence (P37231 232-505 C313A): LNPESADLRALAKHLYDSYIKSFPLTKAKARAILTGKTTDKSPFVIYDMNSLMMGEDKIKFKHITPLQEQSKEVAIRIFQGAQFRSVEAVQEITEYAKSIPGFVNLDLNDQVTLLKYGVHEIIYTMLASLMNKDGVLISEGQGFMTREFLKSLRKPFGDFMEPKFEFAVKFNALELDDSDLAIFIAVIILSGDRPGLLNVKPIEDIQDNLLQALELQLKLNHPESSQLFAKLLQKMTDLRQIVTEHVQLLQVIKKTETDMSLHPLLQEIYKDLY
Source text: as §2

Row | Compound | EC50 (human PPARγ LBD [4]) [nM] | fluorescence of rhodamine-labeled PPARγ LBD (covalent bond with Cys285) [2] | PPARγ agonist activity (in words) (human PPARγ LBD [4]) | other results
1 | CCOC(=O)/C=C/c1ccc(OCCc2cccc(NC(=O)c3cc([N+](=O)[O-])ccc3Cl)c2)cc1 [Compound 3] |  |  |  | EC50 (human PPARγ LBD [1]): 14 nM
2 | CCOC(=O)/C=C/c1ccc(Oc2cccc(NC(=O)c3cc([N+](=O)[O-])ccc3Cl)c2)cc1 [Compound 4a, (E)-Ethyl 3-{4-[3-(2-chloro-5-nitrobenzamido)phenoxy]phenyl}acrylate] | 5.13 ± 0.45 | decrease of labeled PPARγ LBD was also found |  | covalent adduct with Cys285 detected by mass shift of tryptic peptide IFQGCQFR [3]: identified as the Cys285 residue; fold more potent than previously synthesized compound 3 (human PPARγ LBD [4]): about 3 fold; luciferase transcription activity after withdrawal of ligand (human PPARγ LBD [5]): sustained transcription activity 24 h after withdrawal; transactivation in the C285A mutant [6]: did not show the transactivation
3 | CCOC(=O)/C=C/c1ccc(Oc2cccc(NC(=O)c3cccc([N+](=O)[O-])c3)c2)cc1 [Compound 4b, (E)-Ethyl 3-{4-[3-(3-nitrobenzamido)phenoxy]phenyl}acrylate] |  | decrease of fluorescence was not observed | had no agonist activity | covalent adduct with Cys285 detected by mass shift of tryptic peptide IFQGCQFR [3]: these mass shifts were not exhibited
4 | CCOC(=O)/C=C/c1ccc(Oc2ccc(NC(=O)c3cc([N+](=O)[O-])ccc3Cl)cc2)cc1 [Compound 4d, (E)-Ethyl 3-{4-[4-(2-chloro-5-nitrobenzamido)phenoxy]phenyl}acrylate] |  | showed the decrease of fluorescence | completely abolished; also recorded: exhibited no agonistic activity | 
5 | CCOC(=O)/C=C/c1ccc(OCCc2ccc(NC(=O)c3cc([N+](=O)[O-])ccc3Cl)cc2)cc1 [Compound 16, (E)-Ethyl 3-(4-{2-[4-(2-chloro-5-nitrobenzamido)phenyl]ethoxy}phenyl)acrylate] |  | showed the decrease of fluorescence | disappearance of activity; also recorded: exhibited no agonistic activity | 
6 | O=C(Nc1ccccc1)c1cc([N+](=O)[O-])ccc1Cl [GW9662] |  | decreased |  | 

Continued, in another order:

Row | EC50 (human PPARγ LBD [4]) [nM] | Compound | fluorescence of rhodamine-labeled PPARγ LBD (covalent bond with Cys285) [2] | PPARγ agonist activity (in words) (human PPARγ LBD [4]) | other results
7 | 4.11 ± 0.13 | CCOC(=O)/C=C/c1ccc(Oc2ccccc2NC(=O)c2cc([N+](=O)[O-])ccc2Cl)cc1 [Compound 4c, (E)-Ethyl 3-{4-[2-(2-chloro-5-nitrobenzamido)phenoxy]phenyl}acrylate] | decrease of labeled PPARγ LBD was also found |  | fold more potent than previously synthesized compound 3 (human PPARγ LBD [4]): about 3 fold; luciferase transcription activity after withdrawal of ligand (human PPARγ LBD [5]): sustained transcription activity 24 h after withdrawal; transactivation in the C285A mutant [6]: did not show the transactivation
8 | 2.54 ± 1.3 | CCOC(=O)CCc1ccc(Oc2cccc(NC(=O)c3cc([N+](=O)[O-])ccc3Cl)c2)cc1 [Compound 4e, Ethyl 3-{4-[3-(2-chloro-5-nitrobenzamido)phenoxy]phenyl}propanoate] |  |  | 
